Experimental findings from patent publication US10660874B2, “Ecteinamycin, compositions and uses thereof” (Wisconsin Alumni Research Foundation, priority 2014, dated 2020) are described below.

For one series, the system named is S. cerevisiae. The series can be described thus: MIC against S. cerevisiae. The series is classed as cell-based. The note with it: Saccharomyces cerevisiae.
The nature of series [1]: Pharmacokinetic study in mice, ecteinamycin in plasma. Format: in vivo. The note with it: female, FVB, mouse, oral 5 mg/kg vs retro-orbital IV 2.5 mg/kg, dose adjusted. As for the experimental part: An Agilent 1100 LCMS system (ESI-MS positive mode) with a Phenomenex Kinetix C18 column (100×4.6 mm, 2.6 μm) at a flow rate of 0.5 mL/min was used for all analysis. The gradient was from 75% MeOH/25% 1 mM ammonium acetate in H2O to 93% MeOH/7% 1 mM ammonium acetate in H2O in 11 mins, then 93% MeOH/7% 1 mM ammonium acetate in H2O to 100% MeOH for 0.1 min and holding 100% MeOH for 3.9 mins.
A standard curve was constructed using known concentrations of ecteinamycin (1000, 500, 250, 125, 62.50, 31.25, 15.625, 7.8125, 3.90625 ng/mL) in blank human plasma. Linear regression analysis was performed on the peak areas, and the resulting linear equation was used to calculate the ecteinamycin concentrations of quality control (QC) standards of ecteinamycin in human plasma (800, 200, 25, 12.5 ng/mL). The limit of detection was determined to be 31.25 ng/mL, and the limit of quantification was determined to be 62.50 ng/mL.
Eight-to-nine-week-old FVB female mice weighing 20.5 to 25.6 g were used for all studies. […]
Ecteinamycin was formulated with polyethylene glycol (PEG) 300, 25 mM Tris (1:1), pH 8.9. […] Sample quantitation was determined by weighted (R^2) linear regression using a 9-point curve. […] The % oral bioavailability was calculated from the concentration of ecteinamycin (adjusted for dose) in plasma between oral and IV dose: [ecteinamycinoral]/[ecteinamycinIV]×100. […]

≈ marks a conversion by molar mass, not a printed value.

For orientation: MIC means the least concentration at which growth counts as inhibited. Low readings indicate a more susceptible organism, high ones a less susceptible organism. By bioavailability is commonly meant the share of a dose that reaches the circulation, judged against a reference dose that is usually intravenous. Low readings indicate little systemic uptake, high ones much systemic uptake.

In the case of `C=C1OC(=O)C(C(=O)CC2OC(C(C)C(O)C(CC)C(=O)C(C)(O)C3CCC(CC)(C4CCC(O)(C(C)OC)C(C)O4)O3)C(C)CC2C)=C1O` (stereo not drawn) [ecteinamycin], the MIC in the series on S. cerevisiae was found to be 8 µg/mL (≈ 11.3 µM). The bioavailability at 30 min in series [1] (after 30 mins) is 10.9%. The molecule also had a bioavailability at 1 h in series [1] (after 1 h) of 29.3%.
